Measured values published in BindingDB's records for doi:10.1021/jm061152t (Abbott Laboratories, 2007).
“And” between values parts separate entries of the source, which are not always exact repeats. Equal entries are not always repeated.

Assays:
[1] = The binding affinities (Ki) of compounds were determined using fluorescence polarization assays (FPA) that measure their ability to competitively displace a Bad-derived peptide from Bcl-xL. IC50 values were binding affinities measured in the presence of 10% human serum. Compound efficacy (EC50) in a cellular co; conditions: pH 7.4
[2] = The binding affinities (Ki) of compounds were determined using fluorescence polarization assays (FPA) that measure their ability to competitively displace a Bad-derived peptide from Bcl-xL. Compound efficacy (EC50) in a cellular context was evaluated by testing their ability to reverse the protection from cytokine w

Row | SMILES | EC50 [1] [nM] | EC50 [2] | EC50 ([2]; pH 7.4) [nM]
1 | COC1(Cc2ccccc2)CCN(c2ccc(C(=O)NS(=O)(=O)c3ccc(N[C@H](CCN(C)C)CSc4ccccc4)c([N+](=O)[O-])c3)cc2)CC1 [4-(4-benzyl-4-methoxypiperidin-1-yl)-N-[(4-{[(2R)-4-(dimethylamino)-1-(phenylsulfanyl)butan-2-yl]amino}-3-nitrobenzene)sulfonyl]benzamide] | 680 | 930 nM | 
2 | COC1(CC2CCCCC2)CCN(c2ccc(C(=O)NS(=O)(=O)c3ccc(N[C@H](CCN(C)C)CSc4ccccc4)c([N+](=O)[O-])c3)cc2)CC1 [4-[4-(cyclohexylmethyl)-4-methoxypiperidin-1-yl]-N-[(4-{[(2R)-4-(dimethylamino)-1-(phenylsulfanyl)butan-2-yl]amino}-3-nitrobenzene)sulfonyl]benzamide] | 320 | 200 nM | 
3 | COC1(Cc2ccccc2Br)CCN(c2ccc(C(=O)NS(=O)(=O)c3ccc(N[C@H](CCN(C)C)CSc4ccccc4)c([N+](=O)[O-])c3)cc2)CC1 [4-{4-[(2-bromophenyl)methyl]-4-methoxypiperidin-1-yl}-N-[(4-{[(2R)-4-(dimethylamino)-1-(phenylsulfanyl)butan-2-yl]amino}-3-nitrobenzene)sulfonyl]benzamide] | 100 | 200 nM | 
4 | COC1(Cc2ccccc2Cl)CCN(c2ccc(C(=O)NS(=O)(=O)c3ccc(N[C@H](CCN(C)C)CSc4ccccc4)c([N+](=O)[O-])c3)cc2)CC1 [4-{4-[(2-chlorophenyl)methyl]-4-methoxypiperidin-1-yl}-N-[(4-{[(2R)-4-(dimethylamino)-1-(phenylsulfanyl)butan-2-yl]amino}-3-nitrobenzene)sulfonyl]benzamide] | 230 | 180 nM | 
5 | CN(C)CC[C@H](CSc1ccccc1)Nc1ccc(S(=O)(=O)NC(=O)c2ccc(N3CCC(=Cc4ccccc4Cl)CC3)cc2)cc1[N+](=O)[O-] [4-{4-[(2-chlorophenyl)methylidene]piperidin-1-yl}-N-[(4-{[(2R)-4-(dimethylamino)-1-(phenylsulfanyl)butan-2-yl]amino}-3-nitrobenzene)sulfonyl]benzamide] | 350 | 450 nM | 
6 | CN(C)CC[C@H](CSc1ccccc1)Nc1ccc(S(=O)(=O)NC(=O)c2ccc(N3CCC(=Cc4ccccc4C#N)CC3)cc2)cc1[N+](=O)[O-] [4-{4-[(2-cyanophenyl)methylidene]piperidin-1-yl}-N-[(4-{[(2R)-4-(dimethylamino)-1-(phenylsulfanyl)butan-2-yl]amino}-3-nitrobenzene)sulfonyl]benzamide] | 1100 | 1600 nM | 
7 | COC1(Cc2cccc(Cl)c2)CCN(c2ccc(C(=O)NS(=O)(=O)c3ccc(N[C@H](CCN(C)C)CSc4ccccc4)c([N+](=O)[O-])c3)cc2)CC1 [4-{4-[(3-chlorophenyl)methyl]-4-methoxypiperidin-1-yl}-N-[(4-{[(2R)-4-(dimethylamino)-1-(phenylsulfanyl)butan-2-yl]amino}-3-nitrobenzene)sulfonyl]benzamide] | 250 | 300 nM | 
8 | COC1(Cc2ccc(Cl)cc2)CCN(c2ccc(C(=O)NS(=O)(=O)c3ccc(N[C@H](CCN(C)C)CSc4ccccc4)c([N+](=O)[O-])c3)cc2)CC1 [4-{4-[(4-chlorophenyl)methyl]-4-methoxypiperidin-1-yl}-N-[(4-{[(2R)-4-(dimethylamino)-1-(phenylsulfanyl)butan-2-yl]amino}-3-nitrobenzene)sulfonyl]benzamide] | 400 | 500 nM | 
9 | CN(C)CC[C@H](CSc1ccccc1)Nc1ccc(S(=O)(=O)NC(=O)c2ccc(N3CCC(=Cc4ccc(Cl)cc4)CC3)cc2)cc1[N+](=O)[O-] [4-{4-[(4-chlorophenyl)methylidene]piperidin-1-yl}-N-[(4-{[(2R)-4-(dimethylamino)-1-(phenylsulfanyl)butan-2-yl]amino}-3-nitrobenzene)sulfonyl]benzamide] | 620 | 1180 nM | 
10 | CN(C)CC[C@H](CSc1ccccc1)Nc1ccc(S(=O)(=O)NC(=O)c2ccc(N3CCC(=Cc4ccccc4C(F)(F)F)CC3)cc2)cc1[N+](=O)[O-] [N-[(4-{[(2R)-4-(dimethylamino)-1-(phenylsulfanyl)butan-2-yl]amino}-3-nitrobenzene)sulfonyl]-4-(4-{[2-(trifluoromethyl)phenyl]methylidene}piperidin-1-yl)benzamide] | 150 | 210 nM | 
11 | CN(C)CC[C@H](CSc1ccccc1)Nc1ccc(S(=O)(=O)NC(=O)c2ccc(N3CCC(=Cc4ccc(C(F)(F)F)cc4)CC3)cc2)cc1[N+](=O)[O-] [N-[(4-{[(2R)-4-(dimethylamino)-1-(phenylsulfanyl)butan-2-yl]amino}-3-nitrobenzene)sulfonyl]-4-(4-{[4-(trifluoromethyl)phenyl]methylidene}piperidin-1-yl)benzamide] | 2600 | 3600 nM | 
12 | COC1(CC(C)(C)C)CCN(c2ccc(C(=O)NS(=O)(=O)c3ccc(N[C@H](CCN(C)C)CSc4ccccc4)c([N+](=O)[O-])c3)cc2)CC1 [N-[(4-{[(2R)-4-(dimethylamino)-1-(phenylsulfanyl)butan-2-yl]amino}-3-nitrobenzene)sulfonyl]-4-[4-(2,2-dimethylpropyl)-4-methoxypiperidin-1-yl]benzamide] | 750 | 1000 nM | 
13 | CN(C)CC[C@H](CSc1ccccc1)Nc1ccc(S(=O)(=O)NC(=O)c2ccc(N3CCC(=Cc4cccnc4)CC3)cc2)cc1[N+](=O)[O-] [N-[(4-{[(2R)-4-(dimethylamino)-1-(phenylsulfanyl)butan-2-yl]amino}-3-nitrobenzene)sulfonyl]-4-[4-(pyridin-3-ylmethylidene)piperidin-1-yl]benzamide] |  | 1900 nM and 5300 nM | 

Next, values leading:

Row | EC50 [1] [nM] | EC50 [2] | EC50 ([2]; pH 7.4) [nM] | SMILES
14 |  | 40 nM and 13 nM |  | CN(C)CC[C@H](CSc1ccccc1)Nc1ccc(S(=O)(=O)NC(=O)c2ccc(N3CCN(Cc4ccccc4-c4ccc(C(F)(F)F)cc4)CC3)cc2)cc1[N+](=O)[O-] [N-[(4-{[(2R)-4-(dimethylamino)-1-(phenylsulfanyl)butan-2-yl]amino}-3-nitrobenzene)sulfonyl]-4-[4-({2-[4-(trifluoromethyl)phenyl]phenyl}methyl)piperazin-1-yl]benzamide]
15 | 580 | 700 nM |  | COC1(CC(C)C)CCN(c2ccc(C(=O)NS(=O)(=O)c3ccc(N[C@H](CCN(C)C)CSc4ccccc4)c([N+](=O)[O-])c3)cc2)CC1 [N-[(4-{[(2R)-4-(dimethylamino)-1-(phenylsulfanyl)butan-2-yl]amino}-3-nitrobenzene)sulfonyl]-4-[4-methoxy-4-(2-methylpropyl)piperidin-1-yl]benzamide]
16 | 180 | 100 nM |  | COC1(Cc2ccccc2F)CCN(c2ccc(C(=O)NS(=O)(=O)c3ccc(N[C@H](CCN(C)C)CSc4ccccc4)c([N+](=O)[O-])c3)cc2)CC1 [N-[(4-{[(2R)-4-(dimethylamino)-1-(phenylsulfanyl)butan-2-yl]amino}-3-nitrobenzene)sulfonyl]-4-{4-[(2-fluorophenyl)methyl]-4-methoxypiperidin-1-yl}benzamide]
17 |  | 5500 nM and 6800 nM |  | CN(C)CC[C@H](CSc1ccccc1)Nc1ccc(S(=O)(=O)NC(=O)c2ccc(N3CCN(Cc4ccccc4S(C)(=O)=O)CC3)cc2)cc1[N+](=O)[O-] [N-[(4-{[(2R)-4-(dimethylamino)-1-(phenylsulfanyl)butan-2-yl]amino}-3-nitrobenzene)sulfonyl]-4-{4-[(2-methanesulfonylphenyl)methyl]piperazin-1-yl}benzamide]
18 |  | 390 nM and 950 nM |  | COc1ccccc1CN1CCN(c2ccc(C(=O)NS(=O)(=O)c3ccc(N[C@H](CCN(C)C)CSc4ccccc4)c([N+](=O)[O-])c3)cc2)CC1 [N-[(4-{[(2R)-4-(dimethylamino)-1-(phenylsulfanyl)butan-2-yl]amino}-3-nitrobenzene)sulfonyl]-4-{4-[(2-methoxyphenyl)methyl]piperazin-1-yl}benzamide]
19 |  | 410 nM and 940 nM |  | Cc1ccccc1CN1CCN(c2ccc(C(=O)NS(=O)(=O)c3ccc(N[C@H](CCN(C)C)CSc4ccccc4)c([N+](=O)[O-])c3)cc2)CC1 [N-[(4-{[(2R)-4-(dimethylamino)-1-(phenylsulfanyl)butan-2-yl]amino}-3-nitrobenzene)sulfonyl]-4-{4-[(2-methylphenyl)methyl]piperazin-1-yl}benzamide]
20 |  | 18 nM and 16 nM |  | CN(C)CC[C@H](CSc1ccccc1)Nc1ccc(S(=O)(=O)NC(=O)c2ccc(N3CCN(Cc4ccccc4-c4ccccc4)CC3)cc2)cc1[N+](=O)[O-] [N-[(4-{[(2R)-4-(dimethylamino)-1-(phenylsulfanyl)butan-2-yl]amino}-3-nitrobenzene)sulfonyl]-4-{4-[(2-phenylphenyl)methyl]piperazin-1-yl}benzamide]
21 |  | 160 nM and 180 nM |  | CN(C)CC[C@H](CSc1ccccc1)Nc1ccc(S(=O)(=O)NC(=O)c2ccc(N3CCC(=Cc4ccccc4-c4ccccc4)CC3)cc2)cc1[N+](=O)[O-] [N-[(4-{[(2R)-4-(dimethylamino)-1-(phenylsulfanyl)butan-2-yl]amino}-3-nitrobenzene)sulfonyl]-4-{4-[(2-phenylphenyl)methylidene]piperidin-1-yl}benzamide]
22 |  | 600 nM | 380 | CN(C)CC[C@H](CSc1ccccc1)Nc1ccc(S(=O)(=O)NC(=O)c2ccc(N3CCC(=Cc4ccc(F)cc4)CC3)cc2)cc1[N+](=O)[O-] [N-[(4-{[(2R)-4-(dimethylamino)-1-(phenylsulfanyl)butan-2-yl]amino}-3-nitrobenzene)sulfonyl]-4-{4-[(4-fluorophenyl)methylidene]piperidin-1-yl}benzamide]
23 |  | > 20000 nM | > 20000 | Cc1ccc(S(=O)(=O)N2CCN(c3ccc(C(=O)NS(=O)(=O)c4ccc(N[C@H](CCN(C)C)CSc5ccccc5)c([N+](=O)[O-])c4)cc3)CC2)cc1 [N-[(4-{[(2R)-4-(dimethylamino)-1-(phenylsulfanyl)butan-2-yl]amino}-3-nitrobenzene)sulfonyl]-4-{4-[(4-methylbenzene)sulfonyl]piperazin-1-yl}benzamide]
